This note sets out measurements from patent publication US7576087B2, “Heterocyclyl-3-sulfonylazaindole or -azaindazole derivatives as 5-hydroxytryptamine-6 ligands” (Wyeth, priority 2003, dated 2009).

Molecules are shown by their SMILES. Counter-ions that a name gives are not always drawn.

human cloned 5-HT6 receptors, sequence (P50406 whole entry): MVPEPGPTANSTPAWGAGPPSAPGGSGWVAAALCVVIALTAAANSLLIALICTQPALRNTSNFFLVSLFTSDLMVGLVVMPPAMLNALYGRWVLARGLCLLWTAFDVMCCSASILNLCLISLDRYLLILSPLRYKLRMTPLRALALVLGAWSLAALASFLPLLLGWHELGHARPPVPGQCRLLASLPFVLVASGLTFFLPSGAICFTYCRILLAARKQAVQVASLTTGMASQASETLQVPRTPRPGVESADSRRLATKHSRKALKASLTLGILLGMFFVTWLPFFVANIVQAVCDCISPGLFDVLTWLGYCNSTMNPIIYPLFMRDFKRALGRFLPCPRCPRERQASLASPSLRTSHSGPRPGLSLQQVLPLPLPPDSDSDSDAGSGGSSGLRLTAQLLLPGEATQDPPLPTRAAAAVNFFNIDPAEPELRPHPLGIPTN

The assay has as its target human cloned 5-HT6 receptors (Homo sapiens, UniProt P50406).
The term Ki denotes a measure of affinity in units of concentration, obtained from inhibition or displacement. A higher Ki goes with weaker binding. In turn, `CN1CCN(c2ccc3[nH]nc(S(=O)(=O)c4ccccc4)c3n2)CC1` [Example 4, 5-(4-methylpiperazin-1-yl)-3-(phenylsulfonyl)-1H-pyrazolo-[4,3-b]pyridine hydrochloride] had a Ki of 34 nM.
The result for `O=S(=O)(c1ccccc1)c1c[nH]c2ccc(N3CCN(Cc4ccccc4)CC3)nc12` [Example 8, 5-(4-Benzylpiperazin-1-yl)-3-(phenylsulfonyl)-1H-pyrrolo[3,2-b]pyridine] reads 30 nM.
`O=S(=O)(c1ccccc1)c1c[nH]c2ccc(N3CCNCC3)nc12` [Example 9, 3-(Phenylsulfonyl)-5-piperazin-1-yl-1H-pyrrolo[3,2-b]pyridine Dihydrochloride] displayed an inhibition constant Ki of 2 nM.
